Measurements taken from patent publication US20260062443A1 (ALEXION PHARMACEUTICALS, INC., priority 2022, published 2026).
pIC50: −log10 of the molar value.

Target: T1, Human complement C1s enzyme (Homo sapiens, UniProt P09871)
T1 sequence (P09871 438-688 limits assumed): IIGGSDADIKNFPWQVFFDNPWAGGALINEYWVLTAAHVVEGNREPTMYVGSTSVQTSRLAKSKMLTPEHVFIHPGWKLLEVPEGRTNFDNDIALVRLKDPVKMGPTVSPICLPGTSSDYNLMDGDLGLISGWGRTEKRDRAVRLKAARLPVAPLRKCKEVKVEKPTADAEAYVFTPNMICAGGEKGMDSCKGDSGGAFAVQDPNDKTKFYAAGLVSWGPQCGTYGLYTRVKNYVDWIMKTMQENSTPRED
T1 sequence (P09871 16-437 partner limits assumed): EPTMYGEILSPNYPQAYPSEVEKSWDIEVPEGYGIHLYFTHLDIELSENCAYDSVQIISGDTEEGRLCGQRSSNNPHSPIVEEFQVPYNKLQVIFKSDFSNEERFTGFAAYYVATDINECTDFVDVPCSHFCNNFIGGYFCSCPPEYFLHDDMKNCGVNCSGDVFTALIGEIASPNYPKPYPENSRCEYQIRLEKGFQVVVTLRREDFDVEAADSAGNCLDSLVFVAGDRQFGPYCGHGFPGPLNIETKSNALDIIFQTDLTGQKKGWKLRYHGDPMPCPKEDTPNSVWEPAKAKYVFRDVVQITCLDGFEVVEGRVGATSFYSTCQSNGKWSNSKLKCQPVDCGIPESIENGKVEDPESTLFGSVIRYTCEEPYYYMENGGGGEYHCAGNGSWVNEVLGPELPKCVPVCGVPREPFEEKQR
Assay: Human C1s enzyme assay
Format: biochemical
Conditions: human complement C1s enzyme 1.16 nM, substrate Z-L-Lys-SBzl 100 μM, 5 min preincubation; read-out: IC50 (Stars), C1s Inhibiting Activity
Method in brief: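 IC50 from nonlinear regression of reaction rates versus compound concentration, with rates taken from A405 recorded at 30 s intervals over 30 min after adding 100 μM Z-L-Lys-SBzl plus 100 μM DTNB. Enzyme was human C1s purified from serum, 1.16 nM, given 5 min compound preincubation at room temperature, pH 7.5 Tris/1 M NaCl.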

pIC50 | SMILES
> 7.00 | Cc1ccc(-c2ccc3c(c2)CN(CC(=O)N2C[C@H](OC(F)F)C[C@H]2C(=O)N[C@H](C)c2cc4cnccc4[nH]2)C3=O)c(C)c1 [Compound 106, (2S,4R)-N-((R)-1-(1H-pyrrolo[3,2-c]pyridin-2-yl)ethyl)-4-(difluoromethoxy)-1-(2-(5-(2,4-dimethylphenyl)-1-oxoisoindolin-2-yl)acetyl)pyrrolidine-2-carboxamide]
> 7.00 | O=C(NCC(=O)N1CC2(C[C@H]1C(=O)NCc1cc3cnccc3[nH]1)OCCO2)c1ccc(-c2ccccc2)cn1 [Compound 107, (S)-N-((1H-pyrrolo[3,2-c]pyridin-2-yl)methyl)-7-((5-phenylpicolinoyl)glycyl)-1,4-dioxa-7-azaspiro[4.4]nonane-8-carboxamide]
6.00 to 7.00 | Cc1ccc(-c2cnc(C(=O)NCC(=O)N3CC4(C[C@H]3C(=O)NCc3cc5cnccc5[nH]3)OCCO4)c(F)c2)cc1 [Compound 108, (S)-N-((1H-pyrrolo[3,2-c]pyridin-2-yl)methyl)-7-((3-fluoro-5-(p-tolyl)picolinoyl)glycyl)-1,4-dioxa-7-azaspiro[4.4]nonane-8-carboxamide]
< 6.00 | C[C@@]12C[C@@H]1N(C(=O)CNC(=O)CCCOc1ccccc1)[C@H](C(=O)NC1(c3nc4cnccc4[nH]3)CC1)C2 [Compound 109, (1S,3S,5S)-N-(1-(1H-imidazo[4,5-c]pyridin-2-yl)cyclopropyl)-5-methyl-2-((4-phenoxybutanoyl)glycyl)-2-azabicyclo[3.1.0]hexane-3-carboxamide]
< 6.00 | Cc1nc(N)ccc1CNC(=O)[C@@H]1C[C@]2(C)C[C@@H]2N1C(=O)CNC(=O)c1ccc2c(c1)Oc1ccccc1S2 [Compound 110, (1S,3S,5S)-N-((6-amino-2-methylpyridin-3-yl)methyl)-5-methyl-2-((phenoxathiine-3-carbonyl)glycyl)-2-azabicyclo[3.1.0]hexane-3-carboxamide]
> 7.00 | O=C(NCC(=O)N1CC2(C[C@H]1C(=O)NCc1cc3cnccn3c1)OCCO2)c1ccc2c(c1)Oc1ccccc1S2 [Compound 111, 7-{2-[(Phenoxathiine-3-carbonyl)-amino]-acetyl}-1,4-dioxa-7-aza-spiro[4.4]nonane-8-carboxylic acid (pyrrolo[1,2-a]pyrazin-7-ylmethyl)-amide]
> 7.00 | C[C@@]12C[C@@H]1N(C(=O)CNC(=O)c1ccc3c(c1)Oc1ccccc1S3)[C@H](C(=O)NCc1cc3c(s1)CNCC3)C2 [Compound 112, (1S,3S,5S)-5-methyl-2-((phenoxathiine-3-carbonyl)glycyl)-N-((4,5,6,7-tetrahydrothieno[2,3-c]pyridin-2-yl)methyl)-2-azabicyclo[3.1.0]hexane-3-carboxamide]
> 7.00 | C[C@@H](NC(=O)[C@@H]1C[C@]2(C)C[C@@H]2N1C(=O)CN1Cc2cc(-c3ccc(F)cc3F)ccc2C1=O)c1cc2cnccc2[nH]1 [Compound 113, (1S,3S,5S)-N-((R)-1-(1H-pyrrolo[3,2-c]pyridin-2-yl)ethyl)-2-(2-(5-(2,4-difluorophenyl)-1-oxoisoindolin-2-yl)acetyl)-5-methyl-2-azabicyclo[3.1.0]hexane-3-carboxamide]
6.00 to 7.00 | C[C@@H](NC(=O)[C@@H]1CC2(CN1C(=O)CNC(=O)c1ccc(-c3ccccc3)cn1)OCCO2)c1cc2cnccc2[nH]1 [Compound 114, (S)-N-((R)-1-(1H-pyrrolo[3,2-c]pyridin-2-yl)ethyl)-7-((5-phenylpicolinoyl)glycyl)-1,4-dioxa-7-azaspiro[4.4]nonane-8-carboxamide]
< 6.00 | Cc1ccc(-c2cnc(C(=O)NCC(=O)N3CC4(C[C@H]3C(=O)N[C@H](C)c3cc5cnccc5[nH]3)OCCO4)c(F)c2)cc1 [Compound 115, (S)-N-((R)-1-(1H-pyrrolo[3,2-c]pyridin-2-yl)ethyl)-7-((3-fluoro-5-(p-tolyl)picolinoyl)glycyl)-1,4-dioxa-7-azaspiro[4.4]nonane-8-carboxamide]
< 6.00 | C[C@@H](NC(=O)[C@@H]1C[C@]2(C)C[C@@H]2N1C(=O)CN1Cc2cc(-c3ccc(F)cc3)ccc2C1=O)c1cc2cnccc2[nH]1 [Compound 116, (1S,3S,5S)-N-((R)-1-(1H-pyrrolo[3,2-c]pyridin-2-yl)ethyl)-2-(2-(5-(4-fluorophenyl)-1-oxoisoindolin-2-yl)acetyl)-5-methyl-2-azabicyclo[3.1.0]hexane-3-carboxamide]
6.00 to 7.00 | O=C(NCC(=O)N1CC2(C[C@H]1C(=O)NCc1cc3cnccc3[nH]1)OCCO2)c1ccc(-c2ccc(F)cc2F)cc1 [Compound 117, (S)-N-((1H-pyrrolo[3,2-c]pyridin-2-yl)methyl)-7-((2′,4′-difluoro-[1,1′-biphenyl]-4-carbonyl)glycyl)-1,4-dioxa-7-azaspiro[4.4]nonane-8-carboxamide]
< 6.00 | O=C(NCC(=O)N1C[C@H](OC(F)F)C[C@H]1C(=O)O)c1ccc(Oc2ccccc2)cc1 [Compound 118, (2S,4R)-4-(difluoromethoxy)-1-((4-phenoxybenzoyl)glycyl) pyrrolidine-2-carboxylic acid]
< 6.00 | O=C(NCC(=O)N1CC2(C[C@H]1C(=O)O)OCCO2)c1ccc(Oc2ccccc2)cc1 [Compound 119, (S)-7-((4-phenoxybenzoyl)glycyl)-1,4-dioxa-7-azaspiro[4.4]nonane-8-carboxylic acid]
> 7.00 | O=C(NCc1cc2cnccc2[nH]1)[C@@H]1CC2(CN1C(=O)CN1Cc3cc(-c4ccc(F)cc4F)ccc3C1=O)OCCO2 [Compound 120, (S)-N-((1H-pyrrolo[3,2-c]pyridin-2-yl)methyl)-7-(2-(5-(2,4-difluorophenyl)-1-oxoisoindolin-2-yl)acetyl)-1,4-dioxa-7-azaspiro[4.4]nonane-8-carboxamide]
6.00 to 7.00 | O=C(NCc1cc2cnccc2[nH]1)[C@@H]1CC2(CN1C(=O)CN1Cc3cc(-c4ccc(F)cc4)ccc3C1=O)OCCO2 [Compound 121, (S)-N-((1H-pyrrolo[3,2-c]pyridin-2-yl)methyl)-7-(2-(5-(4-fluorophenyl)-1-oxoisoindolin-2-yl)acetyl)-1,4-dioxa-7-azaspiro[4.4]nonane-8-carboxamide]
6.00 to 7.00 | C[C@@H](NC(=O)[C@@H]1CC2(CN1C(=O)CN1Cc3cc(-c4ccc(F)cc4F)ccc3C1=O)OCCO2)c1cc2cnccc2[nH]1 [Compound 122, (S)-N-((R)-1-(1H-pyrrolo[3,2-c]pyridin-2-yl)ethyl)-7-(2-(5-(2,4-difluorophenyl)-1-oxoisoindolin-2-yl)acetyl)-1,4-dioxa-7-azaspiro[4.4]nonane-8-carboxamide]
6.00 to 7.00 | C[C@@H](NC(=O)[C@@H]1CC2(CN1C(=O)CN1Cc3cc(-c4ccc(F)cc4)ccc3C1=O)OCCO2)c1cc2cnccc2[nH]1 [Compound 123, (S)-N-((R)-1-(1H-pyrrolo[3,2-c]pyridin-2-yl)ethyl)-7-(2-(5-(4-fluorophenyl)-1-oxoisoindolin-2-yl)acetyl)-1,4-dioxa-7-azaspiro[4.4]nonane-8-carboxamide]
> 7.00 | C[C@@H](NC(=O)[C@@H]1C[C@@H](OC(F)F)CN1C(=O)CN1Cc2cc(-c3ccc(F)cc3Cl)ccc2C1=O)c1cc2cnccc2[nH]1 [Compound 124, (2S,4R)-N-((R)-1-(1H-pyrrolo[3,2-c]pyridin-2-yl)ethyl)-1-(2-(5-(2-chloro-4-fluorophenyl)-1-oxoisoindolin-2-yl)acetyl)-4-(difluoromethoxy)pyrrolidine-2-carboxamide]
> 7.00 | O=C(NCc1cc2cnccc2[nH]1)[C@@H]1CC2(CN1C(=O)CN1Cc3ccc(-c4ccc(F)cc4F)cc3C1=O)OCCO2 [Compound 125, (S)-N-((1H-pyrrolo[3,2-c]pyridin-2-yl)methyl)-7-(2-(6-(2,4-difluorophenyl)-1-oxoisoindolin-2-yl)acetyl)-1,4-dioxa-7-azaspiro[4.4]nonane-8-carboxamide]
> 7.00 | C[C@@H](NC(=O)[C@@H]1CC2(CN1C(=O)CN1Cc3ccc(-c4ccc(F)cc4F)cc3C1=O)OCCO2)c1cc2cnccc2[nH]1 [Compound 126, (S)-N-((R)-1-(1H-pyrrolo[3,2-c]pyridin-2-yl)ethyl)-7-(2-(6-(2,4-difluorophenyl)-1-oxoisoindolin-2-yl)acetyl)-1,4-dioxa-7-azaspiro[4.4]nonane-8-carboxamide]
> 7.00 | O=C(NCC(=O)N1C[C@H](OC(F)F)C[C@H]1C(=O)NCc1cc2cnccc2[nH]1)c1cccc(Oc2ccccc2)c1 [Compound 127, (2S,4R)-N-((1H-pyrrolo[3,2-c]pyridin-2-yl)methyl)-4-(difluoromethoxy)-1-((3-phenoxybenzoyl)glycyl)pyrrolidine-2-carboxamide]
< 6.00 | O=C(NCC(=O)N1C[C@H](OC(F)F)C[C@H]1C(=O)N[C@@H](CO)c1cc2cnccc2[nH]1)c1ccc2c(c1)-c1ccccc1C2(F)F [Compound 128, (2S,4R)-1-((9,9-difluoro-9H-fluorene-3-carbonyl)glycyl)-4-(difluoromethoxy)-N-((R)-2-hydroxy-1-(1H-pyrrolo[3,2-c]pyridin-2-yl)ethyl) pyrrolidine-2-carboxamide]
